Here are results for 13 molecules from PubChem BioAssay (NCI).

Some test systems named below: HT29 colon; HCT-15 colon; OVCAR-5 ovarian; A498 renal; T-47D breast; K-562 leukemia; NCI-H460 lung; RXF 393 renal.
What all share (assay): NCI tumour cell line growth inhibition, 48 h

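In this assay, cells in 96-well plates receive the compound at five concentrations for 48 hours. Endpoints are linearly interpolated between the surrounding concentrations. At the GI50, growth is halved. The concentration for full growth arrest is given as TGI.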

`COc1cc2c(cc1OCCCCCOc1cc3c(cc1OC)C(=O)N1CC(F)C[C@H]1C=N3)N=C[C@@H]1CC(F)CN1C2=O` (some centres not stated): the GI50 is 0.246 µM with HT29 colon; 1.11 µM in the experiment on HCT-15 colon; 0.117 µM in the experiment on OVCAR-5 ovarian; 0.0863 µM in the experiment with A498 renal; 0.265 µM with T-47D breast; 0.0325 µM in the experiment on K-562 leukemia. For the same molecule, the GI50 in the experiment on NCI-H460 lung is under 0.01 µM. The TGI was over 58.6 µM in the experiment with HT29 colon; 3.72 µM in the experiment with HCT-15 colon; 3.25 µM in the experiment with OVCAR-5 ovarian; 0.217 µM in the experiment with A498 renal; 14 µM with T-47D breast; 1.94 µM with K-562 leukemia. The TGI with NCI-H460 lung was found to be 0.143 µM.
Regarding `c1ccc2c(c1)sc1c3cnccc3ccc21`, the TGI in the experiment on HT29 colon, in the experiment on HCT-15 colon, in the experiment on OVCAR-5 ovarian, in the experiment with A498 renal, in the experiment on T-47D breast and with K-562 leukemia was over 100 µM throughout. The molecule also came in with a TGI in the experiment with NCI-H460 lung of over 100 µM.
Take `Nc1cc(C(=O)O)[nH]c(=O)n1`: the TGI in the experiment with HT29 colon, in the experiment on HCT-15 colon, in the experiment on OVCAR-5 ovarian, in the experiment with A498 renal, in the experiment with RXF 393 renal and in the experiment on K-562 leukemia was over 100 µM throughout. This molecule also showed a TGI with NCI-H460 lung of over 100 µM.
`COc1cccc(C2C3=C(COC3=O)N(CCO)c3cc(OC)ccc32)c1` (configuration not stated): the GI50 was 0.0743 µM in the experiment on HT29 colon; 0.121 µM in the experiment with HCT-15 colon; 0.442 µM in the experiment with OVCAR-5 ovarian; 0.0367 µM with A498 renal; 0.0895 µM with K-562 leukemia; 0.0906 µM with NCI-H460 lung. For the same molecule, the TGI is 2.9 µM in the experiment with HT29 colon; over 100 µM in the experiment on HCT-15 colon; over 100 µM in the experiment on OVCAR-5 ovarian; 1.08 µM in the experiment with A498 renal; over 100 µM in the experiment with K-562 leukemia.
Take `Cc1cc(Cl)cc2c(N=Nc3ccccc3[N+](=O)[O-])c(O)[nH]c12`: the TGI in the experiment with HCT-15 colon, in the experiment with OVCAR-5 ovarian, in the experiment on A498 renal, in the experiment with RXF 393 renal, in the experiment on T-47D breast and in the experiment with K-562 leukemia was over 100 µM each time. Moreover, the TGI in the experiment with NCI-H460 lung is over 100 µM.
With `C=C(C)C1Cc2c(cc(OC)c3c(=O)c4cccc(O)c4oc23)O1` (configuration not stated), the TGI with HT29 colon is over 100 µM; in the experiment on HCT-15 colon, over 100 µM; in the experiment with OVCAR-5 ovarian, over 100 µM; with RXF 393 renal it was 35.9 µM; in the experiment with T-47D breast, 40 µM; in the experiment on K-562 leukemia, over 100 µM. Further, in the experiment with NCI-H460 lung, the TGI worked out at 62.6 µM.
With `Nc1ncnc2c1ncn2Cc1ccc(C23CC4CC(CC(C4)C2)C3)c(OCc2cc(F)c(F)cc2F)c1`, the GI50 is 12 µM in the experiment on HT29 colon; 4.92 µM in the experiment with HCT-15 colon; 68.6 µM in the experiment with OVCAR-5 ovarian; over 100 µM with A498 renal; 2.02 µM in the experiment on RXF 393 renal; over 100 µM with T-47D breast. The GI50 with NCI-H460 lung is 4.33 µM. Also, the TGI was over 100 µM in the experiment with HT29 colon; over 100 µM with HCT-15 colon; over 100 µM in the experiment on OVCAR-5 ovarian; over 100 µM with A498 renal; 8.36 µM in the experiment on RXF 393 renal; over 100 µM in the experiment with T-47D breast. Besides, the TGI in the experiment with NCI-H460 lung was over 100 µM.
Regarding `CC1=C(/C=C/C(=O)O)C(C)(C)CCC1`, the TGI with HT29 colon, in the experiment with HCT-15 colon, in the experiment on OVCAR-5 ovarian, in the experiment with A498 renal, with RXF 393 renal and with K-562 leukemia was over 100 µM throughout. In the experiment on NCI-H460 lung, this molecule gave a TGI of over 100 µM.
On to `O=C(Nc1ccccc1)c1nn(-c2cc(S(=O)(=O)O)c([N+](=O)[O-])cc2Cl)[n+](-c2cc(S(=O)(=O)[O-])c([N+](=O)[O-])cc2Cl)n1`, for which the TGI with HT29 colon, in the experiment with HCT-15 colon, with OVCAR-5 ovarian, in the experiment with RXF 393 renal, with T-47D breast and with K-562 leukemia was over 100 µM in each case. In addition, in the experiment with NCI-H460 lung, the TGI was over 100 µM.
`Cc1ccc(NC(=O)Cc2ccc(/C=C/C(=O)c3ncc[nH]3)cc2)cc1`: the GI50 with HT29 colon is 0.955 µM; in the experiment on HCT-15 colon, 2.01 µM; in the experiment on OVCAR-5 ovarian, 6.84 µM; with A498 renal it was 19.9 µM; with RXF 393 renal it was 7.68 µM; in the experiment with T-47D breast, 6.47 µM. Besides, the GI50 with NCI-H460 lung is 6.32 µM. For the same molecule, the TGI is 5.09 µM in the experiment with HT29 colon; 15.6 µM in the experiment on HCT-15 colon; over 25 µM in the experiment on OVCAR-5 ovarian; over 25 µM in the experiment with A498 renal; over 25 µM in the experiment with RXF 393 renal; over 25 µM in the experiment with T-47D breast. This molecule returned a TGI with NCI-H460 lung of over 25 µM.
As for `Cn1ccnc1C(=O)/C=C/c1ccc(C(=O)Nc2ccc(S(F)(F)(F)(F)F)cc2)cc1`, the GI50 with HT29 colon was 1.88 µM; in the experiment with HCT-15 colon, 0.799 µM; with OVCAR-5 ovarian, 3.3 µM; in the experiment on RXF 393 renal, 2.65 µM; in the experiment with T-47D breast, 0.923 µM; in the experiment on K-562 leukemia, 0.385 µM. Besides, the GI50 with NCI-H460 lung is 0.534 µM. Moreover, the TGI was over 14.3 µM in the experiment with HT29 colon; 4.92 µM in the experiment on HCT-15 colon; over 14.3 µM in the experiment on OVCAR-5 ovarian; 13.9 µM in the experiment on RXF 393 renal; over 14.3 µM with T-47D breast; over 14.3 µM in the experiment with K-562 leukemia. The molecule also returned a TGI in the experiment on NCI-H460 lung of 2.57 µM.
In the case of `COc1cc(-c2nc3sccn3c2-c2ccnc(NCCNS(=O)(=O)c3ccc(Cl)cc3)n2)ccc1F`, the GI50 with HT29 colon is 4.28 µM; in the experiment on HCT-15 colon it was 3.33 µM; in the experiment with OVCAR-5 ovarian, 55 µM; in the experiment on RXF 393 renal it was 1.64 µM; with T-47D breast, 1.44 µM; with K-562 leukemia, 2.76 µM. Besides, the GI50 with NCI-H460 lung was 5.16 µM. The TGI with HT29 colon is over 100 µM; with HCT-15 colon, over 100 µM; with OVCAR-5 ovarian, over 100 µM; in the experiment on RXF 393 renal, over 100 µM; in the experiment on T-47D breast, 8.46 µM; in the experiment with K-562 leukemia, over 100 µM. The molecule also came in with a TGI in the experiment with NCI-H460 lung of over 100 µM.
Take `N#C/C(=N\Nc1ccc(Cl)cc1)C(=O)Nc1cc(-c2ccccc2)nn1-c1ccccc1`: the GI50 in the experiment with HT29 colon is 3.32 µM; in the experiment with HCT-15 colon, 2.14 µM; in the experiment on OVCAR-5 ovarian, 3 µM; in the experiment on RXF 393 renal, 2.06 µM; with T-47D breast, 2.01 µM; in the experiment on K-562 leukemia it was 1.72 µM. For the same molecule, the GI50 with NCI-H460 lung was 2.51 µM. The TGI in the experiment with HT29 colon was over 100 µM; in the experiment with HCT-15 colon it was over 100 µM; in the experiment with OVCAR-5 ovarian it was over 100 µM; in the experiment with RXF 393 renal it was 6.32 µM; with T-47D breast, 7.12 µM; in the experiment on K-562 leukemia, over 100 µM. In the experiment on NCI-H460 lung, this molecule yielded a TGI of over 100 µM.
